Data published in ChEMBL document CHEMBL3885861, “Open TG-GATES”.

Species: Rattus norvegicus
Assay: Open TG-GATES - Regimen: Daily Repeat
Format: toxicity, organism-based, Sprague-Dawley
Parameters: regimen Daily Repeat, gender Male, age 6 weeks
Details: in vivo, po, 1000 mg/kg, route gavage, dose level High; for APTT / Bas / Eos / Fbg / Hb / Ht / Lym / MCH / MCHC / MCV / Mono / Neu / PT / Plat / RBC / Ret / WBC: tissue Blood; for KIDNEY_L / KIDNEY_R / KIDNEY_TOTAL: tissue Kidney; for LIVER: tissue Liver; for A/G / ALP / ALT / AST / BUN / CRE / Ca / Cl / DBIL / GLC / IP / K / LDH / Na / PL / RALB / TBIL / TC / TG / TP / gamma-GTP: tissue Plasma

CC[C@@H](CO)NCCN[C@@H](CC)CO [ETHAMBUTOL]
TERMINAL_BW (72 h, time 3 day): 233.6 g
APTT (72 h, time 3 day): 19.9 s
Bas (72 h, time 3 day): 0%
Eos (72 h, time 3 day): 0.8%
Fbg (72 h, time 3 day): 303.8 mg/dL
Hb (72 h, time 3 day): 13.5 g/dL
Ht (72 h, time 3 day): 38.6%
Lym (72 h, time 3 day): 77.8%
MCH (72 h, time 3 day): 21.4 pg
MCHC (72 h, time 3 day): 35%
MCV (72 h, time 3 day): 61 fL
Mono (72 h, time 3 day): 3.2%
Neu (72 h, time 3 day): 16.6%
PT (72 h, time 3 day): 16.3 s
Plat (72 h, time 3 day): 122.5 x10_4/uL
RBC (72 h, time 3 day): 633.2 x10_4/ul
Ret (72 h, time 3 day): 4.8%
WBC (72 h, time 3 day): 84.1 x10_2/uL
KIDNEY_L (72 h, time 3 day): 1 g
KIDNEY_R (72 h, time 3 day): 1.1 g
KIDNEY_TOTAL (72 h, time 3 day): 2.1 g
LIVER (72 h, time 3 day): 12.7 g
A/G (72 h, time 3 day): 1.2
ALP (72 h, time 3 day): 1656 IU/L
ALT (72 h, time 3 day): 49 IU/L
AST (72 h, time 3 day): 88.2 IU/L
BUN (72 h, time 3 day): 21 mg/dL
CRE (72 h, time 3 day): 0.2 mg/dL
Ca (72 h, time 3 day): 10.6 mg/dL
Cl (72 h, time 3 day): 108 meq/L
DBIL (72 h, time 3 day): 0.002 mg/dL
GLC (72 h, time 3 day): 177.8 mg/dL
IP (72 h, time 3 day): 8.1 mg/dL
K (72 h, time 3 day): 4 meq/L
LDH (72 h, time 3 day): 160.8 IU/L
Na (72 h, time 3 day): 140 meq/L
PL (72 h, time 3 day): 163.8 mg/dL
RALB (72 h, time 3 day): 3 g/dL
TBIL (72 h, time 3 day): 0.026 mg/dL
TC (72 h, time 3 day): 99.6 mg/dL
TG (72 h, time 3 day): 41.2 mg/dL
TP (72 h, time 3 day): 5.5 g/dL
gamma-GTP (72 h, time 3 day): 1.6 IU/L
TERMINAL_BW ([…], time 7 day): 220.6 g
TERMINAL_BW ([…], time 14 day): 208.8 g
TERMINAL_BW ([…], time 28 day): 151.9 g
APTT ([…], time 7 day): 19.7 s
Bas ([…], time 7 day): 0%
Eos ([…], time 7 day): 0.8%
Fbg ([…], time 7 day): 167.4 mg/dL
Hb ([…], time 7 day): 16.1 g/dL
Ht ([…], time 7 day): 46.3%
Lym ([…], time 7 day): 73.8%
MCH ([…], time 7 day): 20.8 pg
MCHC ([…], time 7 day): 34.7%
MCV ([…], time 7 day): 59.8 fL
Mono ([…], time 7 day): 3.4%
Neu ([…], time 7 day): 19.4%
PT ([…], time 7 day): 19.6 s
Plat ([…], time 7 day): 116.6 x10_4/uL
RBC ([…], time 7 day): 774.8 x10_4/ul
Ret ([…], time 7 day): 2%
WBC ([…], time 7 day): 71 x10_2/uL
APTT ([…], time 14 day): 21.5 s
Bas ([…], time 14 day): 0%
Eos ([…], time 14 day): 1.2%
Fbg ([…], time 14 day): 228 mg/dL
Hb ([…], time 14 day): 15.5 g/dL
Ht ([…], time 14 day): 44.6%
Lym ([…], time 14 day): 83.2%
MCH ([…], time 14 day): 19.4 pg
MCHC ([…], time 14 day): 34.8%
MCV ([…], time 14 day): 55.6 fL
Mono ([…], time 14 day): 2.2%
Neu ([…], time 14 day): 12.4%
PT ([…], time 14 day): 18.1 s
Plat ([…], time 14 day): 126 x10_4/uL
RBC ([…], time 14 day): 800.4 x10_4/ul
Ret ([…], time 14 day): 0.5%
WBC ([…], time 14 day): 95.8 x10_2/uL
APTT ([…], time 28 day): 27.6 s
Bas ([…], time 28 day): 0%
Eos ([…], time 28 day): 0.3%
Fbg ([…], time 28 day): 252 mg/dL
Hb ([…], time 28 day): 17.2 g/dL
Ht ([…], time 28 day): 49.9%
Lym ([…], time 28 day): 41.3%
MCH ([…], time 28 day): 18 pg
MCHC ([…], time 28 day): 34.6%
MCV ([…], time 28 day): 52 fL
Mono ([…], time 28 day): 8.3%
Neu ([…], time 28 day): 46.7%
PT ([…], time 28 day): 19.9 s
Plat ([…], time 28 day): 105.7 x10_4/uL
RBC ([…], time 28 day): 960 x10_4/ul
Ret ([…], time 28 day): 0.7%
WBC ([…], time 28 day): 102.9 x10_2/uL
KIDNEY_L ([…], time 7 day): 1 g
KIDNEY_R ([…], time 7 day): 1.1 g
KIDNEY_TOTAL ([…], time 7 day): 2.1 g
KIDNEY_L ([…], time 14 day): 1 g
KIDNEY_R ([…], time 14 day): 1 g
KIDNEY_TOTAL ([…], time 14 day): 2 g
KIDNEY_L ([…], time 28 day): 0.9 g
KIDNEY_R ([…], time 28 day): 0.9 g
KIDNEY_TOTAL ([…], time 28 day): 1.8 g
LIVER ([…], time 7 day): 10.6 g
LIVER ([…], time 14 day): 9.2 g
LIVER ([…], time 28 day): 6.7 g
A/G ([…], time 7 day): 1.2
ALP ([…], time 7 day): 1664.8 IU/L
ALT ([…], time 7 day): 76.6 IU/L
AST ([…], time 7 day): 165.4 IU/L
BUN ([…], time 7 day): 22.2 mg/dL
CRE ([…], time 7 day): 0.2 mg/dL
Ca ([…], time 7 day): 9.3 mg/dL
Cl ([…], time 7 day): 107.4 meq/L
DBIL ([…], time 7 day): 0.3 mg/dL
GLC ([…], time 7 day): 145.2 mg/dL
IP ([…], time 7 day): 8.3 mg/dL
K ([…], time 7 day): 4.6 meq/L
LDH ([…], time 7 day): 334 IU/L
Na ([…], time 7 day): 138.8 meq/L
PL ([…], time 7 day): 108 mg/dL
RALB ([…], time 7 day): 2.4 g/dL
TBIL ([…], time 7 day): 0.3 mg/dL
TC ([…], time 7 day): 59.6 mg/dL
TG ([…], time 7 day): 15.6 mg/dL
TP ([…], time 7 day): 4.3 g/dL
gamma-GTP ([…], time 7 day): 1.4 IU/L
A/G ([…], time 14 day): 1.1
ALP ([…], time 14 day): 1208.4 IU/L
ALT ([…], time 14 day): 53 IU/L
AST ([…], time 14 day): 108.6 IU/L
BUN ([…], time 14 day): 21.8 mg/dL
CRE ([…], time 14 day): 0.2 mg/dL
Ca ([…], time 14 day): 9.4 mg/dL
Cl ([…], time 14 day): 108.6 meq/L
DBIL ([…], time 14 day): 0.068 mg/dL
GLC ([…], time 14 day): 155.2 mg/dL
IP ([…], time 14 day): 6.8 mg/dL
K ([…], time 14 day): 4.1 meq/L
LDH ([…], time 14 day): 178.8 IU/L
Na ([…], time 14 day): 139.4 meq/L
PL ([…], time 14 day): 112.6 mg/dL
RALB ([…], time 14 day): 2.4 g/dL
TBIL ([…], time 14 day): 0.08 mg/dL
TC ([…], time 14 day): 61.6 mg/dL
TG ([…], time 14 day): 19 mg/dL
TP ([…], time 14 day): 4.6 g/dL
gamma-GTP ([…], time 14 day): 3.6 IU/L
A/G ([…], time 28 day): 1.1
ALP ([…], time 28 day): 564 IU/L
ALT ([…], time 28 day): 45.3 IU/L
AST ([…], time 28 day): 342 IU/L
BUN ([…], time 28 day): 34 mg/dL
CRE ([…], time 28 day): 0.2 mg/dL
Ca ([…], time 28 day): 9.8 mg/dL
Cl ([…], time 28 day): 116.7 meq/L
DBIL ([…], time 28 day): 0.1 mg/dL
GLC ([…], time 28 day): 321.7 mg/dL
IP ([…], time 28 day): 10.9 mg/dL
K ([…], time 28 day): 4.3 meq/L
LDH ([…], time 28 day): 600.7 IU/L
Na ([…], time 28 day): 148 meq/L
PL ([…], time 28 day): 102 mg/dL
RALB ([…], time 28 day): 2.9 g/dL
TBIL ([…], time 28 day): 0.2 mg/dL
TC ([…], time 28 day): 60 mg/dL
TG ([…], time 28 day): 22.3 mg/dL
TP ([…], time 28 day): 5.5 g/dL
gamma-GTP ([…], time 28 day): 5.7 IU/L
